Laboratory results published in patent US20240239806A1, “COMPOUNDS, COMPOSITIONS AND METHODS OF TREATING DISORDERS” (Chengdu Anticancer Bioscience, Ltd., priority 2021, published 2024).
Read-outs that look alike come from different tables or passages of the source.

Tests used:
Format in all cases: cell-based
RPEMYC^H2B-GFP cells = experiment: Phenotypic screening assay (mitotic arrest, polyploidy); conditions: 1 nM to 30 μM; for IC50: read-out: Proliferative arrest (>50%)
Summary of the method: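 RPE cells expressing MYC and H2B-EGFP treated with compound at 1 nM–30 μM; mitotic index scored at 24 h and polyploidy (DNA content) at 48 h by automated imaging, with reads at 24, 48 or 72 h. Hits show transient mitotic arrest followed by polyploid accumulation.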

NCI-H23 [1] = experiment: MECP in cancer cell line; conditions: Homo sapiens
Protocol: (§1) Six lung cancer cell lines (NCI-H23, NCI-H460, NCI-H596, NCI-H2170, Calu-6 and A549), two colon cancer cell lines (HCT116 and SW460), one breast cancer cell line MDA-MB-231, one gastric cancer cell line NCI-N87, one prostate cancer cell line DU145, one cervical cancer cell line Hela, and one glioblastoma cell line T98G were obtained from ATCC. The T2 HCC cell line was derived from a mouse liver cancer model initiated by a transgene of MYC. All cell lines were cultured in DMEM (Gibco, Cleveland, TN, USA) supplemented with 5% fetal bovine serum (Gibco), penicillin (100 U/mL)—streptomycin (100 μg/mL) (Gibco, Cat. No. 15140-122), 2 mM L-glutamine (Gibco, 200 mM solution, Cat. No. 25030081), and 1 mM sodium pyruvate (Gibco, 100 mM solution, Cat. No. 11360070) at 37° C. in a humidified incubator that was maintained at 5% CO2. […]

NCI-N87 [2] = experiment: MECP in cancer cell line; conditions: Homo sapiens
Protocol: as §1

MDA-MB-231 [3] = experiment: MECP in cancer cell line; conditions: Homo sapiens
Protocol: (§2) Six lung cancer cell lines (NCI-H23, NCI-H460, NCI-H596, NCI-H2170, Calu-6 and A549), two colon cancer cell lines (HCT116 and SW460), one breast cancer cell line MDA-MB-231, one gastric cancer cell line NCI-N87, one prostate cancer cell line DU145, one cervical cancer cell line Hela, and one glioblastoma cell line T98G were obtained from ATCC. The T2 HCC cell line was derived from a mouse liver cancer model initiated by a transgene of MYC. All cell lines were cultured in DMEM (Gibco, Cleveland, TN, USA) supplemented with 5% fetal bovine serum (Gibco), penicillin (100 U/mL)—streptomycin (100 μg/mL) (Gibco, Cat. No. 15140-122), 2 mM L-glutamine (Gibco, 200 mM solution, Cat. No. 25030081), and 1 mM sodium pyruvate (Gibco, 100 mM solution, Cat. No. 11360070) at 37° C. in a humidified incubator that was maintained at 5% CO2.
(§3) We have previously developed a mechanism-informed phenotypic screening assay to identify novel antimitotic agents. Equipped with a prior understanding of the versatile functions of the chromosomal passenger protein (CPP) complex in orchestrating karyokinesis and cytokinesis, the screening assay is to score for phenotypes typically seen when the CPP complex is disabled. Specifically, the parameters for a positive hit are a temporary elevation of mitotic index (MI) at 24 hours of drug treatment and an accumulation of polyploid cells at 48 hours of drug treatment, indicative of mitotic arrest and cytokinetic failure respectively. These parameters exclude compounds that elicit only a prolonged arrest of cells in mitosis, a phenotype typically provoked by spindle toxins. The screening procedure is briefly summarized here. RPEMYC^H2B-GFP cells engineered to express a Histone 2B-EGFP fusion protein were passaged as batches of 96-well plates, 18-24 hours before exposure to the chemical compounds of the present disclosure at concentrations from 1 nM to 30 μM. At 24, 48 or 72 hours after initiation of treatment, cells were analyzed for either an arrest in mitosis or a change in DNA content by GE IN-Cell Analyzer 2000. As set forth in Table 2 below, a value of greater than or equal to 1 nM and less than or equal to 1.0 μM is marked “A”; a value greater than 1.00 μM and less than or equal to 10.0 μM is marked “B”; a value greater than 10.0 μM and less than or equal to 30.0 μM is marked “C”; and a value greater than 30.0 μM is marked “D.”

Hela [4] = experiment: MECP in cancer cell line; conditions: Homo sapiens
Protocol: as §2, §3

A549 [5] = experiment: MECP in cancer cell line; conditions: Homo sapiens
Protocol: as §2, §3

T2 HCC [6] = experiment: MECP in cancer cell line; conditions: Mus musculus
Protocol: as §2, §3

SW480 [7] = experiment: MECP in cancer cell line; conditions: Homo sapiens
Protocol: as §2, §3

HCT116 [8] = experiment: MECP in cancer cell line; conditions: Homo sapiens, HCT-116
Protocol: as §2, §3

MDA-MB-231 [9] = experiment: MTT assay of cellular proliferation; conditions: Homo sapiens; MDA-MB-231, MTT, 50% inhibition of cellular proliferation
Protocol: as §2
(§4) The MTT assay measures cellular metabolic activity as a proxy for cell viability and involves the conversion of the water-soluble yellow dye MTT [3-(4,5-dimethylthiazol-2-yl)-2,5-diphenyltetrazolium bromide] into an insoluble purple formazan by the action of mitochondrial reductase. Formazan is then solubilized and its concentration is determined by measuring the optical density (OD) value at a wavelength of 570 nm. The value is in proportional to the number of live cells with excellent linearity up to ˜10^6 cells per well. The MTT assay was used to determine the EC50 value, the concentration of a compound that leads to 50% inhibition of cellular proliferation. Briefly, cells were split when growing to the mid-Log phase. Cells in 100 μL of culture medium were seeded into each well of 96-well microplates and cultivated for 15-24 hours to reach a confluence of 20-30% and were then exposed to drugs at concentrations ranging from 1 nM to 30 μM. At the endpoint, 20 μL of a MTT stock solution in DMSO (5 mg/mL) was added to each well that contains 100 μL of DMEM. The microplates were left in the cell culture incubator for 3-4 h before subjected to solubilization and determination of formazan at A570 in a microplate reader (BioTek ELX808iu). […] Therefore, these compounds might hold a broad utility in the treatment of a large variety of human malignancies.

Hela [10] = experiment: MTT assay of cellular proliferation; conditions: Homo sapiens, 50% inhibition of cellular proliferation
Protocol: as §2, §4

NCI-H23 [11] = experiment: MTT assay of cellular proliferation; conditions: Homo sapiens, 50% inhibition of cellular proliferation
Protocol: as §2, §4

A549 [12] = experiment: MTT assay of cellular proliferation; conditions: Homo sapiens, 50% inhibition of cellular proliferation
Protocol: as §2, §4

T2 HCC [13] = experiment: MTT assay of cellular proliferation; conditions: Mus musculus, 50% inhibition of cellular proliferation
Protocol: as §2, §4

SW480 [14] = experiment: MTT assay of cellular proliferation; conditions: Homo sapiens, 50% inhibition of cellular proliferation
Protocol: as §2, §4

NCI-N87 [15] = experiment: MTT assay of cellular proliferation; conditions: Homo sapiens, 50% inhibition of cellular proliferation
Protocol: as §2, §4

HCT116 [16] = experiment: MTT assay of cellular proliferation; conditions: Homo sapiens, HCT-116, 50% inhibition of cellular proliferation
Protocol: as §2, §4

[17] = read-out: Min. Effective conc. for Polyploidy (≥5%)

Row | EC50 (MDA-MB-231 [9]) | EC50 (Hela [10]) | EC50 (NCI-H23 [11]) | EC50 (A549 [12]) | EC50 (T2 HCC [13]) | EC50 (SW480 [14]) | EC50 (HCT116 [16]) | SMILES | minimal effective concentration (RPEMYC^H2B-GFP cells; [17]) | minimal effective concentration (RPEMYC^H2B-GFP cells; read-out: Mitotic Arrest (≥5%)) | IC50 (RPEMYC^H2B-GFP cells) | minimal effective concentration (NCI-H23 [1]) | minimal effective concentration (NCI-N87 [2]) | minimal effective concentration (MDA-MB-231 [3]) | minimal effective concentration (Hela [4]) | minimal effective concentration (A549 [5]) | minimal effective concentration (T2 HCC [6]) | minimal effective concentration (SW480 [7]) | minimal effective concentration (HCT116 [8]) | EC50 (NCI-N87 [15]) | Min. Effective conc. for Polyploidy (≥5%) (RPEMYC^H2B-GFP cells) | also measured
1 | 1 to 1000 nM | 1 to 1000 nM | 1 to 1000 nM | 1 to 1000 nM | 1 to 1000 nM | 1 to 1000 nM | 1 to 1000 nM | COc1cc(NC(C)=O)cc(Oc2ccnc3ccc(OC)cc23)c1 [Compound 18, N-(3-methoxy-5-((6-methoxyquinolin-4-yl)oxy)phenyl)acetamide] | 0.001 to 1 µM | 0.001 to 1 µM | 1 to 1000 nM | 0.001 to 1 µM | 0.001 to 1 µM | 0.001 to 1 µM | 0.001 to 1 µM | 0.001 to 1 µM | 0.001 to 1 µM | 0.001 to 1 µM | 0.001 to 1 µM | 1 to 1000 nM | – | –
2 | 1 to 1000 nM | 1 to 1000 nM | 1 to 1000 nM | 1 to 1000 nM | 1 to 1000 nM | 1 to 1000 nM | 1 to 1000 nM | COc1cc(Oc2ncnc3ccsc23)cc(-n2cccn2)c1 [Compound 38, 4-(3-methoxy-5-(1H-pyrazol-1-yl)phenoxy)thieno[3,2-d]pyrimidine] | 0.001 to 1 µM | 0.001 to 1 µM | 1 to 1000 nM | 0.001 to 1 µM | 0.001 to 1 µM | 0.001 to 1 µM | 0.001 to 1 µM | 0.001 to 1 µM | 0.001 to 1 µM | 0.001 to 1 µM | 0.001 to 1 µM | 1 to 1000 nM | – | –
3 | 1 to 1000 nM | 1 to 1000 nM | 1 to 1000 nM | 1 to 1000 nM | 1 to 1000 nM | 1 to 1000 nM | 1 to 1000 nM | COC(=O)c1ccc2nccc(Oc3cc(NC(C)=O)cc(OC)c3)c2c1 [Compound 42, methyl 4-(3-acetamido-5-methoxyphenoxy)quinoline-6-carboxylate] | 0.001 to 1 µM | 0.001 to 1 µM | 1 to 1000 nM | 0.001 to 1 µM | 0.001 to 1 µM | 0.001 to 1 µM | 0.001 to 1 µM | 0.001 to 1 µM | 0.001 to 1 µM | 0.001 to 1 µM | 0.001 to 1 µM | 1 to 1000 nM | – | –
4 | 1 to 1000 nM | 1 to 1000 nM | 1 to 1000 nM | 1 to 1000 nM | 1 to 1000 nM | 1 to 1000 nM | 1 to 1000 nM | COc1cc(Oc2ccnc3ccccc23)cc(-n2cccn2)c1 [Compound 12, 4-(3-methoxy-5-(1H-pyrazol-1-yl)phenoxy)quinoline] | 0.001 to 1 µM | 0.001 to 1 µM | 1 to 1000 nM | 0.001 to 1 µM | 0.001 to 1 µM | 0.001 to 1 µM | 0.001 to 1 µM | 0.001 to 1 µM | 0.001 to 1 µM | 0.001 to 1 µM | 0.001 to 1 µM | 1 to 1000 nM | – | –

Row | SMILES | EC50 (MDA-MB-231 [9]) | EC50 (Hela [10]) | EC50 (NCI-H23 [11]) | EC50 (A549 [12]) | EC50 (T2 HCC [13]) | EC50 (SW480 [14]) | EC50 (HCT116 [16]) | minimal effective concentration (RPEMYC^H2B-GFP cells; [17]) | minimal effective concentration (RPEMYC^H2B-GFP cells; read-out: Mitotic Arrest (≥5%)) | IC50 (RPEMYC^H2B-GFP cells) | minimal effective concentration (NCI-H23 [1]) | minimal effective concentration (NCI-N87 [2]) | minimal effective concentration (MDA-MB-231 [3]) | minimal effective concentration (Hela [4]) | minimal effective concentration (A549 [5]) | minimal effective concentration (T2 HCC [6]) | minimal effective concentration (SW480 [7]) | minimal effective concentration (HCT116 [8]) | EC50 (NCI-N87 [15]) | Min. Effective conc. for Polyploidy (≥5%) (RPEMYC^H2B-GFP cells) | also measured
5 | COc1cc(Oc2ccnc3cc(OC)c(C(N)=O)cc23)cc(-n2cccn2)c1 [Compound 30, 7-methoxy-4-(3-methoxy-5-(1H-pyrazol-1-yl)phenoxy)quinoline-6-carboxamide] | 1 to 1000 nM | 1 to 1000 nM | 1 to 1000 nM | 1 to 1000 nM | 1 to 1000 nM | 1 to 1000 nM | 1 to 1000 nM | 0.001 to 1 µM | 0.001 to 1 µM | 1 to 1000 nM | 0.001 to 1 µM | 0.001 to 1 µM | 0.001 to 1 µM | 0.001 to 1 µM | 0.001 to 1 µM | 0.001 to 1 µM | 0.001 to 1 µM | 0.001 to 1 µM | 1 to 1000 nM | D (a value greater than 30.0 μM) | Mitotic Arrest (≥5%) (RPEMYC^H2B-GFP cells): D (a value greater than 30.0 μM); Proliferative arrest (>50%) (RPEMYC^H2B-GFP cells): D (a value greater than 30.0 μM); Along with Cell Death (RPEMYC^H2B-GFP cells; listed as 25): D (a value greater than 30.0 μM)
6 | COc1cc(NC(C)=O)cc(Oc2ccnc3cc(OC)c(OC)cc23)c1 [Compound 27, N-(3-((6,7-dimethoxyquinolin-4-yl)oxy)-5-methoxyphenyl)acetamide] | 1 to 1000 nM | 1 to 1000 nM | 1 to 1000 nM | 1 to 1000 nM | 1 to 1000 nM | 1 to 1000 nM | 1 to 1000 nM | 0.001 to 1 µM | 0.001 to 1 µM | 1 to 1000 nM | 0.001 to 1 µM | 0.001 to 1 µM | 0.001 to 1 µM | 0.001 to 1 µM | 0.001 to 1 µM | 0.001 to 1 µM | 0.001 to 1 µM | 0.001 to 1 µM | 1 to 1000 nM | B (a value greater than 1.00 μM and less than or equal to 10.0 μM) | Mitotic Arrest (≥5%) (RPEMYC^H2B-GFP cells): B (a value greater than 1.00 μM and less than or equal to 10.0 μM); Proliferative arrest (>50%) (RPEMYC^H2B-GFP cells): B (a value greater than 1.00 μM and less than or equal to 10.0 μM); Along with Cell Death (RPEMYC^H2B-GFP cells; listed as 23): B (a value greater than 1.00 μM and less than or equal to 10.0 μM)
